Biological target: human PCSK9 (Homo sapiens, UniProt Q8NBP7)
Test: PCSK9 ligand binding assay (TR-FRET): interference with binding of human PCSK9 to human LDLR
Details: for IC50: Human PCSK9 Alexa Fluor 647 / Human LDLR extracellular domain-Europium Kryptate; for Max % inhibition: efficacy (Amax), 100% = 1 uM unlabeled human PCSK9, 0% = DMSO
Procedure, shortened: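 Read-out was TR-FRET ratio (665 nm over 615 nm, 330 nm excitation) between Alexa Fluor 647-human PCSK9 (16 nM added) and Europium Kryptate-human LDLR ectodomain (4 nM added). Compound and PCSK9 were mixed 30 min before LDLR, then incubated 2 h. Inhibition was normalised to DMSO and unlabelled-PCSK9 controls, giving IC50 and Amax.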

Chain of human PCSK9 (Q8NBP7 153-692): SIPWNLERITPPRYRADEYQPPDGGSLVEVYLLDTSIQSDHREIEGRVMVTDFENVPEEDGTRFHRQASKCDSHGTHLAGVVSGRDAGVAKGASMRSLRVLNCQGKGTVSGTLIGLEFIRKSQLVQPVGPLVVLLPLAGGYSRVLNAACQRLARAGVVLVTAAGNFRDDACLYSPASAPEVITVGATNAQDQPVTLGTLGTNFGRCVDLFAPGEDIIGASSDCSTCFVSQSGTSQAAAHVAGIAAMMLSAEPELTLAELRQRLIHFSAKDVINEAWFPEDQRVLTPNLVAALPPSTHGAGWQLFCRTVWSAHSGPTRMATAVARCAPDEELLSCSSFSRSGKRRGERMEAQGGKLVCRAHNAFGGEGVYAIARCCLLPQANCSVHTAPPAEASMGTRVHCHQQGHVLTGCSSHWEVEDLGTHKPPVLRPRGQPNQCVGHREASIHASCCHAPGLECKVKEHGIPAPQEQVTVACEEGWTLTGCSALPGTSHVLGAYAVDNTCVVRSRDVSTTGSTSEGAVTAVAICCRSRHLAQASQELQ
Chain of human PCSK9 (Q8NBP7 31-152 partner limits assumed): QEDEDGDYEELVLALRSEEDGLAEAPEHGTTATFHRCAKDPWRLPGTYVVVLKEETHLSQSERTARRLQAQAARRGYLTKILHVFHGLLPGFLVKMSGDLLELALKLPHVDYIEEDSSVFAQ

| SMILES | IC50 | Max % inhibition |
| --- | --- | --- |
| C[C@H]1C(=O)N[C@@H](CO)C(=O)N[C@@]2(Cc3ccc(Cl)cc3)CCCN(C2)C(=O)[C@H](CC2CC2)CC(=O)N1Cc1c(F)cc(Cl)cc1Oc1ccc(-c2cnc(CN(C)C(C)(C)C)n2C)cc1 [Compound 163, (3R, 7S, 10S, 13R)-6-(2-(4-(2-((tert-butyl(methyl)amino)methyl)-1-methyl-1H-imidazol-5-yl)phenoxy)-4-chloro-6-fluorobenzyl)-13-(4-chlorobenzyl)-3-(cyclopropylmethyl)-10-(hydroxymethyl)-7-methyl-1,6,9,12-tetraazabicyclo[11.3.1]heptadecane-2,5,8,11-tetraone] | 1.21 nM | 111.6% |
| CC[C@@H]1CC(=O)N(Cc2ccc(Cl)cc2Oc2ccc(-c3cnc(CN4CCCC4)n3C)cc2)[C@@H](C)C(=O)N[C@@H](CO)C(=O)N(C)[C@H](Cc2ccc(Cl)cc2)CN(C)C1=O.Cl [Compound 128, (2S, 5S, 8R, 12R)-1-(4-chloro-2-(4-(1-methyl-2-(pyrrolidin-1-ylmethyl)-1H-imidazol-5-yl)phenoxy)benzyl)-8-(4-chlorobenzyl)-12-ethyl-5-(hydroxymethyl)-2,7,10-trimethyl-1,4,7, 10-tetraazacyclotetradecane-3,6,11,114-tetraone] | 250 nM | 89.8% |
| COC[C@@H]1NC(=O)[C@H](C)N(Cc2c(F)cc(Cl)cc2Oc2ccc(-c3cnc(CN4CCC4)n3C)cc2)C(=O)C[C@@H](CC(F)(F)F)C(=O)N2CCC[C@@](Cc3ccc(Cl)cc3)(C2)N(C)C1=O [Compound 157, (3S, 7S, 10S, 13R)-6-(2-(4-(2-(azetidin-1-ylmethyl)-1-methyl-1H-imidazol-5-yl)phenoxy)-4-chloro-6-fluorobenzyl)-13-(4-chlorobenzyl)-10-(methoxymethyl)-7,12-dimethyl-3-(2,2,2-trifluoroethyl)-1,6,9,12-tetraazabicyclo[11.3.1]heptadecane-2,5,8,11-tetraone] | 1.18 nM | 104.7% |
| COC[C@@H]1NC(=O)[C@H](CCC(=O)N2CCC2)N(Cc2ccc(Cl)cc2Oc2ccc(-c3cnc(CN4CCCC4)n3C)cc2)C(=O)C[C@@H]([C@H]2CC(C)(C)c3ccccc32)C(=O)N(C)C[C@@H](Cc2ccc(Cl)cc2)N(C)C1=O.Cl [Compound 132, (2S,5S,8R,12S)-2-(3-(azetidin-1-yl)-3-oxopropyl)-1-(4-chloro-2-(4-(1-methyl-2-(pyrrolidin-1-ylmethyl)-1H-imidazol-5-yl)phenoxy)benzyl)-8-(4-chlorobenzyl)-12-((R)-3,3-dimethyl-2,3-dihydro-1H-inden-1-yl)-5-(methoxymethyl)-7,10-dimethyl-1,4,7,10-tetraazacyclotetradecane-3,6,11,14-tetraone hydrochloride] | 231 nM | 100.3% |
| COC[C@@H]1NC(=O)[C@H](C)N(Cc2ccc(Cl)cc2Oc2ccc(-c3cnc(CN4CCCC4)n3C)cc2)C(=O)C[C@@H]([C@H]2COc3c(OC)cccc32)C(=O)N(C)C[C@@H](Cc2ccc(Cl)cc2)N(C)C1=O.Cl [Compound 110, (2S, 5S, 8R, 12S)-1-(4-chloro-2-(4-(1-methyl-2-(pyrrolidin-1-ylmethyl)-1H-imidazol-5-yl)phenoxy)benzyl)-8-(4-chlorobenzyl)-12-((R)-7-methoxy-2,3-dihydrobenzofuran-3-yl)-5-(methoxymethyl)-2,7,10-trimethyl-1,4,7,10-tetraazacyclotetradecane-3,6,11,14-tetraone] | 10.2 nM | 102.2% |
| COC[C@@H]1NC(=O)[C@H](C)N(Cc2c(F)cc(Cl)cc2Oc2ccc(-c3cnc(CN(C)C)n3C)cc2)C(=O)C[C@@H](C2CCOCC2)C(=O)N2CCC[C@@](Cc3ccc(Cl)cc3)(C2)N(C)C1=O [Compound 174, (3S, 7S, 10S, 13R)-6-(4-chloro-2-(4-(2-((dimethylamino)methyl)-1-methyl-1H-imidazol-5-yl)phenoxy)-6-fluorobenzyl)-13-(4-chlorobenzyl)-10-(methoxymethyl)-7,12-dimethyl-3-(tetrahydro-2H-pyran-4-yl)-1,6,9,12-tetraazabicyclo[11.3.1]heptadecane-2,5,8,11-tetraone] | 2.2 nM | 110.7% |

Now those with a lower IC50, led by results:

| IC50 | Max % inhibition | SMILES |
| --- | --- | --- |
| 0.6 nM | 107.8% | C/C=C/C[C@@H]1CC(=O)N(Cc2ccc(Cl)cc2Oc2ccc(-c3cnc(CN(C)C)n3C)cc2)[C@@H](C)C(=O)N[C@@H](CO)C(=O)N[C@@]2(Cc3ccc(Cl)cc3)CCCN(C2)C1=O [Compound 40, (3R,7S,10S,13R)-3-((E)-but-2-en-1-yl)-6-(4-Chloro-2-(4-(2-((dimethylamino)methyl)-1-methyl-1H-imidazol-5-yl)phenoxy)benzyl)-13-(4-chlorobenzyl)-10-(hydroxymethyl)-7-methyl-1,6,9,12-tetraazabicyclo[11.3.1]heptadecane-2,5,8,11-tetraone] |
| 0.71 nM | 104.6% | C[C@H]1C(=O)N[C@@H](CO)C(=O)N[C@@]2(Cc3ccc(Cl)cc3)CCCN(C2)C(=O)[C@H](CC2CC2)CC(=O)N1Cc1c(F)cc(Cl)cc1Oc1ccc(-c2cnc(CNC(C)(C)C)n2C)cc1 [Compound 154, (3R, 7S, 10S, 13R)-6-(2-(4-(2-((tert-butylamino)methyl)-1-methyl-1H-imidazol-5-yl)phenoxy)-4-chloro-6-fluorobenzyl)-13-(4-chlorobenzyl)-3-(cyclopropylmethyl)-10-(hydroxymethyl)-7-methyl-1,6,9,12-tetraazabicyclo[11.3.1]heptadecane-2,5,8,11-tetraone] |
| 0.9 nM | 108.6% | CNCc1ncc(-c2ccc(Oc3cc(Cl)cc(F)c3CN3C(=O)C[C@@H](Cc4cccc(C)n4)C(=O)N4CCC[C@@](Cc5ccc(Cl)cc5)(C4)N(C)C(=O)[C@H](COC)NC(=O)[C@@H]3C)cc2)n1C [Compound 167, (3R,7S,10S,13R)-6-(4-chloro-2-fluoro-6-(4-(1-methyl-2-((methylamino)methyl)-1H-imidazol-5-yl)phenoxy)benzyl)-13-(4-chlorobenzyl)-10-(methoxymethyl)-7,12-dimethyl-3-((6-methylpyridin-2-yl)methyl)-1,6,9,12-tetraazabicyclo[11.3.1]heptadecane-2,5,8,11-tetraone] |
| 0.819 nM | 106.2% | C[C@H]1C(=O)N[C@@H](COC(F)F)C(=O)N[C@@]2(Cc3ccc(Cl)cc3)CCCN(C2)C(=O)[C@H](Cc2ccccn2)CC(=O)N1Cc1ccc(Cl)cc1Oc1ccc(-c2cnc(CN3CCCC3)n2C)cc1 [Compound 30, (3R,7S,10S,13R)-6-(4-Chloro-2-(4-(1-methyl-2-(pyrrolidin-1-ylmethyl)-1H-imidazol-5-yl)phenoxy)benzyl)-13-(4-chlorobenzyl)-10-((difluoromethoxy)methyl)-7-methyl-3-(pyridin-2-ylmethyl)-1,6,9,12-tetraazabicyclo[11.3.1]heptadecane-2,5,8,11-tetraone] |
| 0.715 nM | 106.4% | COC[C@@H]1NC(=O)[C@H](C)N(Cc2ccc(Cl)cc2Oc2ccc(-c3cnc(CN(C)C)n3C)cc2)C(=O)C[C@@H](Cc2cccc(C)n2)C(=O)N2CCC[C@@](Cc3ccc(Cl)cc3)(C2)N(C)C1=O [Compound 38, (3R, 7S, 10S, 13R)-6-(4-chloro-2-(4-(2-((dimethylamino)methyl)-1-methyl-1H-imidazol-5-yl)phenoxy)benzyl)-13-(4-chlorobenzyl)-10-(methoxymethyl)-7,12-dimethyl-3-((6-methylpyridin-2-yl)methyl)-1,6,9,12-tetraazabicyclo[11.3.1]heptadecane-2,5,8,11-tetraone] |
| 0.763 nM | 115.6% | COC[C@@H]1NC(=O)[C@H](C)N(Cc2c(F)cc(Cl)cc2Oc2ccc(-c3cnc(CN(C)C)n3C)cc2)C(=O)C[C@@H](Cc2ccccn2)C(=O)N2CCC[C@@](Cc3ccc(Cl)cc3)(C2)N(C)C1=O [Compound 57, (3R,7S,10S,13R)-6-(4-Chloro-2-(4-(2-((dimethylamino)methyl)-1-methyl-1H-imidazol-5-yl)phenoxy)-6-fluorobenzyl)-13-(4-chlorobenzyl)-10-(methoxymethyl)-7,12-dimethyl-3-(pyridin-2-ylmethyl)-1,6,9,12-tetraazabicyclo[11.3.1]heptadecane-2,5,8,11-tetraone] |
| 0.75 nM | 111.4% | COC[C@@H]1NC(=O)[C@H](C)N(Cc2ccc(Cl)cc2Oc2ccc(-c3cnc(CNC(C)(C)C)n3C)cc2)C(=O)C[C@@H](Cc2ccccc2)C(=O)N2CCC[C@@](Cc3ccc(Cl)cc3)(C2)NC1=O [Compound 149, (3R, 7S, 10S, 13R)-3-benzyl-6-(2-(4-(2-((tert-butylamino)methyl)-1-methyl-1H-imidazol-5-yl)phenoxy)-4-chlorobenzyl)-13-(4-chlorobenzyl)-10-(methoxymethyl)-7-methyl-1,6,9,12-tetraazabicyclo[11.3.1]heptadecane-2,5,8,11-tetraone] |
| 0.452 nM | 113.9% | COC[C@@H]1NC(=O)[C@H](C)N(Cc2c(F)cc(Cl)cc2Oc2ccc(-c3cnc(CN(C)C)n3C)cc2)C(=O)C[C@@H](Cc2cccc[n+]2[O-])C(=O)N2CCC[C@@](Cc3ccc(Cl)cc3)(C2)N(C)C1=O [Compound 3, 2-(((3R, 7S, 10S, 13R)-6-(4-chloro-2-(4-(2-((dimethylamino)methyl)-1-methyl-1H-imidazol-5-yl)phenoxy)-6-fluorobenzyl)-13-(4-chlorobenzyl)-10-(methoxymethyl)-7,12-dimethyl-2,5,8,11-tetraoxo-1,6,9,12-tetraazabicyclo[11.3.1]heptadecan-3-yl)methyl)pyridine 1-oxide] |
